How the values were obtained:
α-Gal A [1] = target: T1, α-Gal A (Homo sapiens, UniProt P06280); settings: 10 mM Tris vs 0 mM Tris
T1 sequence (P06280 32-429): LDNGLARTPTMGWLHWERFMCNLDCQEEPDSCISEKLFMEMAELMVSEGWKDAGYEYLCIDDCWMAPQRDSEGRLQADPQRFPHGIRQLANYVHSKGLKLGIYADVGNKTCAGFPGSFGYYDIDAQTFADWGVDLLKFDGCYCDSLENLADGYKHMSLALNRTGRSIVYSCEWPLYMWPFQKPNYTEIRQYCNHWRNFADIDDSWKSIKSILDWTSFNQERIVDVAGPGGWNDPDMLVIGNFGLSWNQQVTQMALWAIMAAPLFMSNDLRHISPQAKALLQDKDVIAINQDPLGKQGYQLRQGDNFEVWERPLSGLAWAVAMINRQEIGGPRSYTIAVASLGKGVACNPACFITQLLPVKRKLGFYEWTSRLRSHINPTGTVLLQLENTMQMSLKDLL
Method: FIG. 1 depicts Thermal Stability curves of α-Gal A at 0 mM (blue) and 10 mM (red) Tris buffer.

α-Gal A [2] = target: T1, α-Gal A; settings: buffer comprising Tris at 150 mM

SMILES: NC(CO)(CO)CO [Tris, tris(hydroxymethyl)aminomethane]
- α-Gal A thermal stability increase (α-Gal A [1]): 3 °C
- elution of α-Gal A from the affinity resin (α-Gal A [2]): effectively eluted

Source: patent US11685912B2, “Affinity purification of glycosidase-cleaving enzymes” (TAKEDA PHARMACEUTICAL COMPANY LIMITED, priority 2018, dated 2023)
